Experimental data: patent publication US5955053A, “Metal chelates as pharmaceutical imaging agents, processes of making such and uses thereof” (Emory University, priority 1996, dated 1999)
Where two headings read alike, the source gives them in different places.

How the values were obtained:
[1] = Biodistribution in normal rats; assay type: in vivo, rat; details: ^99m Tc
Description: Tracheostomy was performed in an anesthetized rat and the left jugular vein was cannulated with one piece of PE-50 tubing for injection of the ^99m Tc radiopharmaceutical. The bladder was catheterized utilizing heat flared PE-50 tubing for urine collection. […] Each animal was sacrificed at the conclusion of the dynamic study and simultaneous static images of the isolated lungs, heart, liver, spleen, stomach, kidneys, bowel and bladder with urine were acquired as well as a static image of the rat carcass without the organs. Total counts for the injected dose were determined from the sum of the isolated organ counts and the carcass counts decay corrected to the time of organ imaging. Regions of interest were drawn around each organ to determined the percent injected dose in each organ.

[2] = Renal clearance / renal excretion in rats (statements in words); assay type: in vivo, rat; details: for Renal clearance of DD-EC compared to LL-EC: vs LL-isomer
Description: Tracheostomy was performed in an anesthetized rat and the left jugular vein was cannulated with one piece of PE-50 tubing for injection of the ^99m Tc radiopharmaceutical. The bladder was catheterized utilizing heat flared PE-50 tubing for urine collection. A bolus injection of the radiopharmaceutical (400-500 μCi/0.25 ml) was given and the rat was imaged (1 frame/10 s) for 22 minutes (130 frames) using a gamma camera. Each animal was sacrificed at the conclusion of the dynamic study and simultaneous static images of the isolated lungs, heart, liver, spleen, stomach, kidneys, bowel and bladder with urine were acquired as well as a static image of the rat carcass without the organs. Total counts for the injected dose were determined from the sum of the isolated organ counts and the carcass counts decay corrected to the time of organ imaging. Regions of interest were drawn around each organ to determined the percent injected dose in each organ.

[3] = Normal volunteer studies: plasma clearance, urinary excretion and imaging; assay type: in vivo, human; details: humans; for Clearance rate (EC/OIH): ± spread as printed
Description: ^99m Tc LL-EC, DD-EC and DL-EC were each evaluated in three normal male volunteers. The HPLC purified complexes and phosphate-buffered saline (pH 7.0) were passed through a SEP-PAK Plus C18 cartridge (primed with 1 ml ethanol) and a sterile Millex-GS 0.22 μm filter unit into a sterile, pyrogen-free empty vial. The final concentration was ~2.0 mCi/2.5 ml and the final pH ranged from 5.7 to 7.4. Test samples of each complex were sterile and pyrogen free. Approximately 2 mCi of each ^99m Tc complex were coinjected with 200 μCi of I-131 OIH and plasma samples were obtained at 5, 10, 15, 20, 30 45, 60 and 90 minutes postinjection. The plasma clearances of I-131 OIH and each EC complex were determined using the single injection, two-compartment model of Sapirstein et al., Am. J. Physiol. 181:330-336. The volunteers voided at 30, 90 and 180 minutes postinjection to determine the percent dose in the urine at each time period. A urine sample from the 30 minute urine collection was obtained for HPLC analysis from one of the normal volunteers and analyzed for each complex. One volunteer was imaged with each complex using a simultaneous acquisition with a 20% window centered over the 363 KeV photopeak of I-131 and a second 20% window over the 140 KeV photopeak of ^99m Tc. Data were acquired in a 128×128 matrix using a three phase dynamic acquisition: phase 1 consisted of 24 two second frames, phase 2 consisted of 16 fifteen second frames and phase 3 consisted of 40 thirty second frames. Data were acquired using a general Electric (Milwaukee, Wis.) Star-Cam computer fitted with a high energy collimator. All studies were performed with the approval of the Human Investigations Committee and a signed consent form was obtained.

[4] = physiological pH; cited from earlier work
[5] = Stability of metal chelates; assay type: physicochemical
[6] = mice; cited from earlier work
[7] = mice and baboons; cited from earlier work
[8] = in vivo; cited from earlier work
[9] = cited from earlier work
[10] = % of that of OIH; cited from earlier work
[11] = normal volunteers; increases in renal failure; cited from earlier work
[12] = cited from earlier work; remark: listed apart in the source
[13] = in vivo; cited from earlier work; remark: listed apart in the source
[14] = in vivo; cited from earlier work; remark: listed apart in the source
[15] = in vivo; cited from earlier work; remark: listed apart in the source
[16] = cited from earlier work; remark: listed apart in the source

For `O=C(O)[C@@H](CS)NCCN[C@H](CS)C(=O)O` (99mTc complex, metal not drawn) [D,D-EC, D,D-ethylenedicysteine], the “Biodistribution: Bladder” value ([1]; 22 minutes post injection) was 63.2% of total activity, the “Biodistribution: Carcass” value ([1]; 22 minutes post injection) was 25.4% of total activity and the “Biodistribution: Intestines” value ([1]; 22 minutes post injection) was 2.6% of total activity. The “Biodistribution: Kidneys” value ([1]; 22 minutes post injection) was 5.4% of total activity, the “Biodistribution: Liver” value ([1]; 22 minutes post injection) was 2.9% of total activity and the “Biodistribution: Stomach” value ([1]; 22 minutes post injection) was < 1% of total activity. The “Renal clearance of DD-EC compared to LL-EC” value [2] was “superior to L,L-EC in rats”, the “Renal clearance of DD-EC compared to LL-EC” value ([2]; listed as DD-EC) was “significantly higher than that of its LL-isomer” and the “Renal clearance / excretion compared to MAG3” value ([2]; vs ^99m Tc MAG3) was “more rapid renal clearance than ^99m Tc MAG3”. For the same compound, the “Renal clearance / excretion compared to MAG3” value ([2]; vs ^99m Tc MAG3, listed as DD-EC) was “significantly higher”, the Imaging properties [3] was “excellent imaging properties” and the “Rate of excretion in the urine” value [3] was “excreted at essentially the same rate in the urine”. The “Clearance rate (EC/OIH)” value [3] was 82 ±8%, the Dianionic form [4] was 80% and the Monoanionic form [4] was 20%.

With `CC(C)(S)C(=O)NCCCNC(=S)NCCC(=O)O` [(Me)2 -TAPTU-EtCOOH, dimethylthioacetamidepropylthiourea-ethylCOOH] the “Stability compared with corresponding thioacetamidethiourea derivative” value [5] was “greater stability than the corresponding thioacetamidethiourea derivative” and the “Stability compared with corresponding thioacetamidethiourea derivative” value ([5]; listed as dimethyl-TAPTU-EtCOOH) was “more stable than the corresponding thioacetamide-thiourea derivative”.

For `O=C([O-])[C@H](C[S-])NCCN[C@@H](CS)C(=O)[O-].[O]=[Tc+3]` [L,L-EC, L,L-ethylenedicysteine, reference compound], the “Biodistribution: Bladder” value ([1]; 22 minutes post injection) was 45.6% of total activity, the “Biodistribution: Carcass” value ([1]; 22 minutes post injection) was 22.6% of total activity and the “Biodistribution: Intestines” value ([1]; 22 minutes post injection) was 1.8% of total activity. For the same compound, the “Biodistribution: Kidneys” value ([1]; 22 minutes post injection) was 24.4% of total activity, the “Biodistribution: Liver” value ([1]; 22 minutes post injection) was 4.5% of total activity and the “Biodistribution: Stomach” value ([1]; 22 minutes post injection) was < 1% of total activity. For the same compound, the “Rate of excretion in the urine” value [3] was “excreted at essentially the same rate in the urine”, the “Clearance rate (EC/OIH)” value [3] was 70 ±3% and the Dianionic form [4] was 80%. For the same compound, the Monoanionic form [4] was 20%, the “Excretion into the urine” value [6] was “rapidly and efficiently excreted into the urine in mice” and the “Comparison to enantiomer DD-EC” value [7] was “superior to the enantiomer ^99m Tc DD-EC”. The “Pharmacokinetic properties relative to OIH and MAG3” value [7] was “more closely approached those of OIH than the properties of MAG3” and the “Excretion by the kidneys” value [8] was “excreted rapidly and efficiently by the kidneys”.

With `O=C([O-])CN=C([O-])CN=C([O-])CN=C([O-])C[S-].[O]=[99Tc+3]` [MAG3, technetium-99m (^99m Tc) mercaptoacetyltriglycine, reference compound] the “Biodistribution: Bladder” value ([1]; 22 minutes post injection) was 57% of total activity, the “Biodistribution: Carcass” value ([1]; 22 minutes post injection) was 14% of total activity and the “Biodistribution: Intestines” value ([1]; 22 minutes post injection) was 5% of total activity. The “Biodistribution: Kidneys” value ([1]; 22 minutes post injection) was 23% of total activity, the “Biodistribution: Liver” value ([1]; 22 minutes post injection) was 1% of total activity and the “Biodistribution: Stomach” value ([1]; 22 minutes post injection) was < 1% of total activity. For the same compound, the Plasma-protein binding [9] was “very high”, the “Clearance relative to OIH” value [10] was 50-60% and the “Transport into the small intestine via the hepatobiliary system” value [11] was “a small percentage”. For the same compound, the “Clearance compared to DTPA” value ([12]; in vivo) was “higher clearance”.

For `C[C@H](NC(=O)CNC(=O)CS)C(=O)NCC(=O)O` [MAGAG, mercaptoacetylglycylalanylglycine], the “Comparison of diastereomers to MAG3” value [13] is given as “one diastereomer comparable and the other considerably inferior”.

For `O=C(O)CNC(=O)c1ccccc1[131I]` [OIH, ^131 I-orthohippurate], the “Clearance relative to PAH” value ([12]; % of the clearance of PAH) is given as 83%.

In the case of D,L-ethylenedicysteine [DL-EC], the “Rate of excretion in the urine” value [3] is reported as “slower rate of excretion” and the “Clearance rate (EC/OIH)” value [3] is reported as 40 ±5%.

For “L-cysteinylethylenepyridine carboxamide [L-CEPIC]”, the “Biodistribution: Bladder” value ([1]; 30 minutes post injection) was 58.2% of total activity, the “Biodistribution: Carcass” value ([1]; 30 minutes post injection) was 19.8% of total activity and the “Biodistribution: Intestines” value ([1]; 30 minutes post injection) was 6.4% of total activity. The “Biodistribution: Kidneys” value ([1]; 30 minutes post injection) was 7.2% of total activity, the “Biodistribution: Liver” value ([1]; 30 minutes post injection) was 4.8% of total activity and the “Biodistribution: Stomach” value ([1]; 30 minutes post injection) was 1.9% of total activity. The “Removal by the kidneys” value [2] was “rapid and selective removal”, the “Uptake in other major organs” value [2] was “only trace amounts” and the “Renal clearance / excretion compared to MAG3” value ([2]; vs ^99m Tc MAG3) was “even more rapidly excreted by the kidneys than ^99m Tc MAG3”.

In the case of “^99m Tc L,L-ethylenedicysteine diethyl ester [LL-ECD]”, the Brain perfusion agent [14] is given as “good brain perfusion agent”.

For “^99m Tc mercaptoacetylglycylglycyl-L-alanine [MAG2-Ala]”, the “Characteristics as imaging agents” value [15] is given as “promising characteristics as imaging agents”.

In the case of “^99m Tc mercaptoacetylglycylglycyl-L-asparagine [MAG2-Asn]”, the “Characteristics as imaging agents” value [15] is listed as “promising characteristics as imaging agents”.

For “^99m Tc mercaptoacetylglycylglycyl-L-glutamine [MAG2-Gln]”, the “Characteristics as imaging agents” value [15] is listed as “promising characteristics as imaging agents”.

In the case of “^99m Tc mercaptoacetylglycylglycyl-taurine”, the “Comparison to MAG3 in dogs” value [16] is listed as “inferior to ^99m Tc MAG3 in dogs”.

In the case of “thioacetamidethiourea-ethylCOOH [TATU-EtCOOH]”, the “Renal clearance / excretion compared to MAG3” value ([2]; vs ^99m Tc MAG3) is reported as “superior renal clearance”.

In the case of “thioacetamidethiourea-para-phenylCOOH [TATU-pPhCOOH]”, the “Rate of renal clearance” value [2] is reported as “cleared at a moderate rate”.
